The source of these data is patent US20250236608A1, “EGFR INHIBITORS” (Blueprint Medicines Corporation, priority 2022, published 2025).

Experiment [1] has as its target EGFR L858R (Homo sapiens (Human), UniProt P00533, L858R). In words: Biochemical EGFR inhibition assay, EGFR L858R. To be noted: Caliper mobility shift; 1.0 mM ATP or ATP Km; read-out: Enz EGFR_L858R IC50.
Experiment [2] deals with EGFR (d746-750) (Homo sapiens (Human), UniProt P00533, DEL746-750). As to the kind of experiment: Biochemical EGFR inhibition assay, EGFR (d746-750). To be noted: Caliper mobility shift; 1.0 mM ATP or ATP Km; read-out: Enz EGFR_Exon19-del746-750 IC50.
Experiment [3] concerns the target pEGFR (Tyr1068) in PC-9 cells (Ex19Del) (Homo sapiens (Human), UniProt P00533, DEL746-750). As to the kind of experiment: PC-9 pEGFR AlphaLISA assay. Type of experiment: cell-based. The following applies: 4 hours incubation, p-EGFR (Tyr1068) AlphaLISA, read-out: Ext pEGFR_PC-9 Ex19Del IC50. In outline: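 Readout: AlphaLISA SureFire Ultra signal in cell lysates, with acceptor beads for 1.5-2 h and donor beads overnight at room temperature in the dark. Beforehand, unstimulated cells in 10% FBS medium received compounds (10 points, 4-fold steps) for 4 h at 37° C. IC50 came from percent inhibition curves.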
(In Alpha technology, singlet oxygen from a donor bead excites a nearby acceptor bead.)

SMILES strings stand for the structures.

Sequence of EGFR (d746-750) (P00533 other isoform, or with tags, fused parts or gaps del 1-694/del 746-750 limits assumed): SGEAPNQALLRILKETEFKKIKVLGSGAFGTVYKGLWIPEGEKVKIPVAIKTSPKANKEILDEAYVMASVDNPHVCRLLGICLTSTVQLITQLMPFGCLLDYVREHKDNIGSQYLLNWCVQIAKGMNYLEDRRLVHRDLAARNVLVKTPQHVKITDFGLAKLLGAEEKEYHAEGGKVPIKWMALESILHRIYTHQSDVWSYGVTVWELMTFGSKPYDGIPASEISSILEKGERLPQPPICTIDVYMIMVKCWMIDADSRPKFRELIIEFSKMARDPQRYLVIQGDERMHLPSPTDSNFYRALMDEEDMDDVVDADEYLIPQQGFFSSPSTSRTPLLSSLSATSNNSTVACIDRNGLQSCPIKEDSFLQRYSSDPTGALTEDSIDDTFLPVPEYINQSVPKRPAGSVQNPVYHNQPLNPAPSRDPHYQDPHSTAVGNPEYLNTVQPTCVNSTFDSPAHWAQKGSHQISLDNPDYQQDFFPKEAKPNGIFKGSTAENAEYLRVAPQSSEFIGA
Sequence of EGFR L858R (P00533 25-1210 L858R): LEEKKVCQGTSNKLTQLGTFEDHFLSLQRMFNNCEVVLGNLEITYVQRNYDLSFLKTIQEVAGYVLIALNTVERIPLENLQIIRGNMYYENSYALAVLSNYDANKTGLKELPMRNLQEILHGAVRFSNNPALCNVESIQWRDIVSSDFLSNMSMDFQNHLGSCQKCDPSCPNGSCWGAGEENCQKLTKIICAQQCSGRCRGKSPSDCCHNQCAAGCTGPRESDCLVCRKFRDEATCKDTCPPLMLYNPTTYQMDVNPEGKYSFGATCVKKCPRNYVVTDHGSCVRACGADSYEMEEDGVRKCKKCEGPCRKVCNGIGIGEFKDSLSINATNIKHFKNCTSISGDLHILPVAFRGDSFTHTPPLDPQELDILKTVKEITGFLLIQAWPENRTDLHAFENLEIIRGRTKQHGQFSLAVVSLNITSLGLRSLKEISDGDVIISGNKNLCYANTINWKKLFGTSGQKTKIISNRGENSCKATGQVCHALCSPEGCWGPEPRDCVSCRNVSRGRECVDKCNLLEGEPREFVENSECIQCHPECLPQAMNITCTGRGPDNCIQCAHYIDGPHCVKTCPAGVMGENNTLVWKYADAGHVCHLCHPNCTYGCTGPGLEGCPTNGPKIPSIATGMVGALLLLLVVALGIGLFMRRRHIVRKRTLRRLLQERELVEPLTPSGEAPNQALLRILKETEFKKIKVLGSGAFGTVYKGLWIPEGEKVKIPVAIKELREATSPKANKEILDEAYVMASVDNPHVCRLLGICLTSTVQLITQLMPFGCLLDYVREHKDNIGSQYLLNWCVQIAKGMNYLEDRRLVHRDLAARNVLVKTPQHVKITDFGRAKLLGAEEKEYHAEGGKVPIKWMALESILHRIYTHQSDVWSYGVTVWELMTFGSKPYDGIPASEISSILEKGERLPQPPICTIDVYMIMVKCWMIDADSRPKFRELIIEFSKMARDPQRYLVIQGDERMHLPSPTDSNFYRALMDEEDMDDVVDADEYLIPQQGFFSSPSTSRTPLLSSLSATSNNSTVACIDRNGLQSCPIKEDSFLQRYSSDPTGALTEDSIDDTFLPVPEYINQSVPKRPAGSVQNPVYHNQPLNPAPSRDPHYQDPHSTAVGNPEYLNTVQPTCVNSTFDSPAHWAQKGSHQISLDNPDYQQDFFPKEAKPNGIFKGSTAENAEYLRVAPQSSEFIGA
Sequence of pEGFR (Tyr1068) in PC-9 cells (Ex19Del) (P00533 other isoform, or with tags, fused parts or gaps del 746-750): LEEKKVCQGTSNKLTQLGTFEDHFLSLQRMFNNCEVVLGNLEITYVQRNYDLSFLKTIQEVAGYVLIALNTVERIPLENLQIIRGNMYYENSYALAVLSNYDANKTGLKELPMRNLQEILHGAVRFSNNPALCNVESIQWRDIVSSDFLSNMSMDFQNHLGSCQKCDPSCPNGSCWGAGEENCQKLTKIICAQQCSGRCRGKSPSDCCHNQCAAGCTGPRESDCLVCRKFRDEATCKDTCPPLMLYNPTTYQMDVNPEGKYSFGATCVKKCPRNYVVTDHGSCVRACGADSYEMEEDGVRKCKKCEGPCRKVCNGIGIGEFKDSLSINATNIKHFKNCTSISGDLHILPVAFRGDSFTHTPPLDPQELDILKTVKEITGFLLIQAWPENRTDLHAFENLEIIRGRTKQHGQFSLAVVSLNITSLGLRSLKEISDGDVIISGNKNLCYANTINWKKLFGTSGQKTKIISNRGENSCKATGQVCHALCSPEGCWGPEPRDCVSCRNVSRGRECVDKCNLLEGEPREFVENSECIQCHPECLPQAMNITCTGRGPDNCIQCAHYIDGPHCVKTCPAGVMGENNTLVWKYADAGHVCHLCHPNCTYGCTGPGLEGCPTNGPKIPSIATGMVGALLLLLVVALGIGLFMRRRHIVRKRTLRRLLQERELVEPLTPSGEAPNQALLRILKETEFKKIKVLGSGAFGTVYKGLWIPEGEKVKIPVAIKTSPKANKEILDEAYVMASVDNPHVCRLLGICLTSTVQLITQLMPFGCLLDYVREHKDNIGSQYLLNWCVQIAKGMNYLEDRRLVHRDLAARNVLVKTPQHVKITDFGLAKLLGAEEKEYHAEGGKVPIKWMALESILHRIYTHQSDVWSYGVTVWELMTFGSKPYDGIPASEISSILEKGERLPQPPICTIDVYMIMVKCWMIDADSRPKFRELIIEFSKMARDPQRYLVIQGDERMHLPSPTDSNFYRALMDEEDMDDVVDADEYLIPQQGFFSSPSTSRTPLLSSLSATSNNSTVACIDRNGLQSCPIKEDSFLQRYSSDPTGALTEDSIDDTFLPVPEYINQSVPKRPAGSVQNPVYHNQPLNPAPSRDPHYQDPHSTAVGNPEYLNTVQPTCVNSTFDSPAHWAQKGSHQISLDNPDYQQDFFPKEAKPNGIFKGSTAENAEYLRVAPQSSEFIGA

A word on the IC50: it is the concentration that gives 50% inhibition. As to `CCOc1cc2ncnc(-c3cn(CC)nc3-c3ccccc3)c2cc1N1CCOCC1` [Example 170, 4-(7-ethoxy-4-(1-ethyl-3-phenyl-1H-pyrazol-4-yl)quinazolin-6-yl)morpholine], the IC50 in experiment [1] is 2 nM; in experiment [2], 0.9 nM; in experiment [3] it was 1.2 nM.
For `CCn1cc(-c2ncnc3cc(OC)c(N4CCOCC4)cc23)c(-c2ccc(F)cc2)n1` [Example 171, 4-(4-(1-ethyl-3-(4-fluorophenyl)-1H-pyrazol-4-yl)-7-methoxyquinazolin-6-yl)morpholine], the IC50 in experiment [1] was 5.2 nM; in experiment [2], 2.9 nM; in experiment [3], 4.8 nM.
In the same order, the values of `CCOc1cc2ncnc(-c3cn(C)nc3-c3ccccc3)c2cc1N1CCN(C)C[C@@H]1C` [Example 174, (S)-6-(2,4-dimethylpiperazin-1-yl)-7-ethoxy-4-(1-methyl-3-phenyl-1H-pyrazol-4-yl)quinazoline] are 2.8 nM, 2.3 nM and 3.4 nM.
For `CCOc1cc2ncnc(-c3cn(C)nc3-c3ccccc3)c2nc1N1CC2(COC2)C1` [Example 175, 6-(7-ethoxy-4-(1-methyl-3-phenyl-1H-pyrazol-4-yl)pyrido[3,2-d]pyrimidin-6-yl)-2-oxa-6-azaspiro[3.3]heptane], in that order: 1.6 nM, 1 nM and 1.2 nM.
For `COc1cc2ncnc(-c3cn(C)nc3-c3ccccc3)c2cc1N1CCN(C)C1=O` [Example 176, 1-(7-methoxy-4-(1-methyl-3-phenyl-1H-pyrazol-4-yl)quinazolin-6-yl)-3-methylimidazolidin-2-one], in that order: 5.4 nM, 3 nM and 11 nM.
On to `COc1cc2ncnc(-c3cn(C)nc3-c3ccccc3)c2cc1NC(=O)N1CCO[C@@H](C)[C@@H]1C` [Example 177, (2S,3S)—N-(7-methoxy-4-(1-methyl-3-phenyl-1H-pyrazol-4-yl)quinazolin-6-yl)-2,3-dimethylmorpholine-4-carboxamide], for which the figures for the IC50 in experiment [1], in experiment [2] and in experiment [3] were 4.3 nM, 2.1 nM and 6.1 nM, respectively.
For `COc1cc2ncnc(-c3cn(C)nc3-c3ccccc3)c2cc1NC(=O)N1C[C@H](C)N(C)C[C@@H]1C` [Example 178, (2S,5S)—N-(7-methoxy-4-(1-methyl-3-phenyl-1H-pyrazol-4-yl)quinazolin-6-yl)-2,4,5-trimethylpiperazine-1-carboxamide], the half-inhibitory concentration (IC50) in experiment [1] turned out to be 6.2 nM; in experiment [2], 3.3 nM; in experiment [3], 5.4 nM.
In the same order, the values of `[2H]C([2H])([2H])N1CCN(C(=O)Nc2cc3c(-c4cn(C)nc4-c4ccccc4)ncnc3cc2OC)[C@@H](C)C1` [Example 181, (S)—N-(7-methoxy-4-(1-methyl-3-phenyl-1H-pyrazol-4-yl)quinazolin-6-yl)-2-methyl-4-(methyl-d3) piperazine-1-carboxamide] are 4.3 nM, 2.7 nM and 4.5 nM.
In the same order, the values of `COc1cc2ncnc(-c3cn(C)nc3-c3ccccc3)c2cc1NC(=O)N1C[C@@H](C)N(C)C[C@@H]1C` [Example 182, (2S,5R)—N-(7-methoxy-4-(1-methyl-3-phenyl-1H-pyrazol-4-yl)quinazolin-6-yl)-2,4,5-trimethylpiperazine-1-carboxamide] are 4.1 nM, 1.8 nM and 5.2 nM.
In the same order, the values of `COc1cc2ncnc(-c3cn(C)nc3-c3ccccc3)c2cc1NC(=O)N1C[C@@H](C)OC[C@@H]1C` [Example 183, (2R,5S)-N-(7-methoxy-4-(1-methyl-3-phenyl-1H-pyrazol-4-yl)quinazolin-6-yl)-2,5-dimethylmorpholine-4-carboxamide] are 8 nM, 3.6 nM and 10.7 nM.
Consider `COc1cc2ncnc(-c3cn(C)nc3-c3ccccc3)c2cc1NC(=O)N1CCOC(C)(C)C1` [Example 184, N-[7-methoxy-4-(1-methyl-3-phenyl-1H-pyrazol-4-yl)quinazolin-6-yl]-2,2-dimethylmorpholine-4-carboxamide], for which the figures for the IC50 in experiment [1], in experiment [2] and in experiment [3] were 3.5 nM, 1.8 nM and 7.9 nM, respectively.
In the same order, the values of `COc1cc2ncnc(-c3cn(C)nc3-c3ccccc3)c2cc1NC(=O)c1cnn(C(F)(F)F)c1` [Example 187, N-(7-methoxy-4-(1-methyl-3-phenyl-1H-pyrazol-4-yl)quinazolin-6-yl)-1-(trifluoromethyl)-1H-pyrazole-4-carboxamide] are 2.6 nM, 1.5 nM and 4 nM.
With `COc1cc2ncnc(-c3cn(C)nc3-c3ccccc3F)c2cc1NC(=O)C1(CN(C)C)CC1` [Example 188, 1-((dimethylamino)methyl)-N-(4-(3-(2-fluorophenyl)-1-methyl-1H-pyrazol-4-yl)-7-methoxyquinazolin-6-yl)cyclopropane-1-carboxamide], the half-maximal inhibitory concentration (IC50) in experiment [1] is 2 nM; in experiment [2], 0.8 nM; in experiment [3], 1.3 nM.
For `COc1cc2ncnc(-c3cn(C)nc3-c3ccccc3)c2cc1NC(=O)C1(CN(C)C)CC1` [Example 189, 1-((dimethylamino)methyl)-N-(7-methoxy-4-(1-methyl-3-phenyl-1H-pyrazol-4-yl)quinazolin-6-yl)cyclopropane-1-carboxamide], in that order: 4 nM, 1.9 nM and 4.3 nM.
Regarding `COc1cc2ncnc(-c3cn(C)nc3-c3ccccc3)c2cc1NC(=O)c1ccncc1Cl` [Example 190, 3-chloro-N-(7-methoxy-4-(1-methyl-3-phenyl-1H-pyrazol-4-yl)quinazolin-6-yl)isonicotinamide], the IC50 in experiment [1] turned out to be 1.1 nM; in experiment [2], 0.8 nM; in experiment [3] it was 1.5 nM.
In the same order, the values of `COc1cc2ncnc(-c3cn(C)nc3-c3ccccc3)c2cc1NC(=O)c1ccncc1C` [Example 191, N-(7-methoxy-4-(1-methyl-3-phenyl-1H-pyrazol-4-yl)quinazolin-6-yl)-3-methylisonicotinamide] are 3.8 nM, 1.8 nM and 6.4 nM.
With `COc1cc2ncnc(-c3cn(C)nc3-c3ccccc3)c2cc1NC(=O)c1ncccn1` [Example 192, N-(7-methoxy-4-(1-methyl-3-phenyl-1H-pyrazol-4-yl)quinazolin-6-yl)pyrimidine-2-carboxamide], the IC50 in experiment [1] worked out at 1.1 nM; in experiment [2], 0.7 nM; in experiment [3], 1.6 nM.
In the case of `COc1cc2ncnc(-c3cn(C)nc3-c3ccccc3)c2cc1NC(=O)c1cncnc1` [Example 193, N-(7-methoxy-4-(1-methyl-3-phenyl-1H-pyrazol-4-yl)quinazolin-6-yl)pyrimidine-5-carboxamide], the 50% inhibitory concentration (IC50) was 1.5 nM in experiment [1], 0.7 nM in experiment [2] and 2.9 nM in experiment [3].
On to `COc1cc2ncnc(-c3cn(C)nc3-c3ccccc3)c2cc1NC(=O)c1ccnc(C)c1` [Example 194, N-(7-methoxy-4-(1-methyl-3-phenyl-1H-pyrazol-4-yl)quinazolin-6-yl)-2-methylisonicotinamide], for which the IC50 in experiment [1] was determined as 1.4 nM; in experiment [2], 0.7 nM; in experiment [3], 1.7 nM.
Regarding `COc1cc2ncnc(-c3cn(C)nc3-c3ccccc3)c2cc1NC(=O)c1cccnc1C` [Example 195, N-(7-methoxy-4-(1-methyl-3-phenyl-1H-pyrazol-4-yl)quinazolin-6-yl)-2-methylnicotinamide], the results for the IC50 in experiment [1], in experiment [2] and in experiment [3] were 3.8 nM, 1.6 nM and 5.9 nM, respectively.
For `COc1cc2ncnc(-c3cn(C)nc3-c3ccccc3)c2cc1NC(=O)c1cnc(C)c(F)c1` [Example 196, 5-fluoro-N-(7-methoxy-4-(1-methyl-3-phenyl-1H-pyrazol-4-yl)quinazolin-6-yl)-6-methylnicotinamide], in that order: 1.7 nM, 0.9 nM and 1.5 nM.
In the same order, the values of `COc1cc2ncnc(-c3cn(C)nc3-c3ccccc3)c2cc1NC(=O)c1ccccc1C` [Example 197, N-(7-methoxy-4-(1-methyl-3-phenyl-1H-pyrazol-4-yl)quinazolin-6-yl)-2-methylbenzamide] are 1.8 nM, 0.8 nM and 2.5 nM.
Consider `COc1cc2ncnc(-c3cn(C)nc3-c3ccccc3)c2cc1NC(=O)c1ccccc1F` [Example 198, 2-fluoro-N-(7-methoxy-4-(1-methyl-3-phenyl-1H-pyrazol-4-yl)quinazolin-6-yl)benzamide], for which the IC50 in experiment [1] came to 1.3 nM; in experiment [2], 0.8 nM; in experiment [3] it was 1.1 nM.
With `COc1cc2ncnc(-c3cn(C)nc3-c3ccccc3)c2cc1NC(=O)c1cccc(F)c1Cl` [Example 199, 2-chloro-3-fluoro-N-(7-methoxy-4-(1-methyl-3-phenyl-1H-pyrazol-4-yl)quinazolin-6-yl)benzamide], the figures for the IC50 in experiment [1], in experiment [2] and in experiment [3] were 1.6 nM, 1.1 nM and 1.9 nM, respectively.
For `COc1cc2ncnc(-c3cn(C)nc3-c3ccccc3)c2cc1NC(=O)c1cccc(F)c1C` [Example 200, 3-fluoro-N-(7-methoxy-4-(1-methyl-3-phenyl-1H-pyrazol-4-yl)quinazolin-6-yl)-2-methylbenzamide], in that order: 5.7 nM, 2.4 nM and 8.4 nM.
